{"source": "paper PMC6934184", "about": "“Selective DNA-PKcs inhibition extends the therapeutic index of localized radiotherapy and chemotherapy” (The Journal of Clinical Investigation, 2019)", "target": "T1, CSK (Homo sapiens, UniProt P41240)", "T1 construct": "purchased Thermo Fisher Scientific (Life Technologies) SelectScreen", "T1 sequence (P41240 whole entry)": "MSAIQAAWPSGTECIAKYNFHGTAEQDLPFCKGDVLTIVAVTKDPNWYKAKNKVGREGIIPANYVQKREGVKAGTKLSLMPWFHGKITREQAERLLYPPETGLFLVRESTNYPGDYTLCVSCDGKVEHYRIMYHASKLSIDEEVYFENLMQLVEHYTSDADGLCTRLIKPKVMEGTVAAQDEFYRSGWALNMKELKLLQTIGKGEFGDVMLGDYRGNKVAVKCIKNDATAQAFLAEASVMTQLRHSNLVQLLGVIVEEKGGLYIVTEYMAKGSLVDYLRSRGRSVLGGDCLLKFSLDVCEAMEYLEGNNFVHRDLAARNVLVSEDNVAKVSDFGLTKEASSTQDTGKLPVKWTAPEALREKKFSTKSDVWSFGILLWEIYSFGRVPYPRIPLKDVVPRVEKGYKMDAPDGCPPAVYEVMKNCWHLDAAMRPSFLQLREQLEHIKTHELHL", "experiment": "SelectScreen Z'LYTE", "format": "biochemical", "procedure,_shortened": "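Percent values come from Thermo SelectScreen profiling of NU5455, combining activity and binding assays. CSF1R was run in Z'LYTE format at Km app ATP, and CAMK1 in Adapta format with ATP listed at 10.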"}
{"molecule": "CN(C(=O)CN1CCOCC1)c1ccc2sc3c(-c4cccc5c(=O)cc(N6CC7CCC(C6)O7)oc45)cccc3c2c1", "note": "[NU5455]", "values": [{"measurement": "inhibition at 1 µM", "value": 7.6, "unit": "%"}]}
